Measurements taken from ChEMBL document CHEMBL1125124, “Tertiary 2-haloethylamine derivatives of the muscarinic agent McN-A-343, [4-[[N-(3-chlorophenyl)carbamoyl]oxy]-2-butynyl]trimethylammonium chloride” (J Med Chem, 1990).
The source made the active and inactive calls. The calls are words filed in the database; no cut-off is given here.

Tests used:
[1] = Lethal dose was determined in male Swiss-Webster mice by intravenous injection using up-and-down method; type: toxicity, organism-based; details: mouse, in vivo
[2] = Rate constant (cyclization rate) in CD3CN-deuterated phosphate buffer at pH 7.4; type: ADME
Mus musculus = assay: Peripheral muscarinic effect was evaluated in mice by intravenous injection; No visible tremors or salivation observed; type: functional, organism-based
[3] = Half life was determined; type: ADME

SMILES	LD50 [1] [µmol/kg]	K1 [2] [min⁻¹]	Activity (Mus musculus)	half-life [3] [h]	K2 [2] [min⁻¹]
CN(CC#CCOC(=O)Nc1cccc(Cl)c1)CCBr	57.2	0.27	–	–	–
C[N+](C)(C)CC#CCOC(=O)Nc1cccc(Cl)c1.[Cl-]	3.7	–	inactive	–	–
CN(CC#CCOC(=O)Nc1cccc(Cl)c1)CCCl	166	0.0089	–	1.87	0.099
